Measured values from ChEMBL document CHEMBL3885861, “Open TG-GATES”.

Organism: Rattus norvegicus
Assay: Open TG-GATES - Regimen: Daily Repeat
Type: toxicity, organism-based, Sprague-Dawley
Design: regimen Daily Repeat, gender Male, age 6 weeks
Settings: in vivo, po, route gavage; for gamma-GTP / ALP / AST / BUN / CRE / Ca / Cl / DBIL / GLC / IP / K / LDH / Na / PL / RALB / TBIL / TC / TG / TP: tissue Plasma; for APTT / Bas / Eos / Fbg / Hb / Ht / Lym / MCH / MCHC / MCV / Mono / Neu / PT / Plat / RBC / Ret / WBC: tissue Blood; for KIDNEY_L / KIDNEY_R / KIDNEY_TOTAL: tissue Kidney; for LIVER: tissue Liver
[1] = 100 mg/kg, 72 h, dose level Low, time 3 day
[2] = 100 mg/kg, […], dose level Low, time 7 day
[3] = 100 mg/kg, […], dose level Low, time 14 day
[4] = 100 mg/kg, […], dose level Low, time 28 day

## COc1ccc2[nH]c([S+]([O-])Cc3ncc(C)c(OC)c3C)nc2c1 (centres undefined) [OMEPRAZOLE]
0 mg/kg, […], dose level Control, time 28 day
  gamma-GTP: 0.8 IU/L
[1]
  TERMINAL_BW: 240.6 g
  APTT: 19 s
  Bas: 0%
  Eos: 1%
  Fbg: 214.2 mg/dL
  Hb: 13.1 g/dL
  Ht: 38.3%
  Lym: 77%
  MCH: 21 pg
  MCHC: 34.2%
  MCV: 61.4 fL
  Mono: 3.4%
  Neu: 18.6%
  PT: 12.3 s
  Plat: 127.7 x10_4/uL
  RBC: 624 x10_4/ul
  Ret: 5.2%
  WBC: 119.7 x10_2/uL
  KIDNEY_L: 1.1 g
  KIDNEY_R: 1.1 g
  KIDNEY_TOTAL: 2.2 g
  LIVER: 12.4 g
  ALP: 887.8 IU/L
  AST: 67.8 IU/L
  BUN: 15.2 mg/dL
  CRE: 0.3 mg/dL
  Ca: 10.6 mg/dL
  Cl: 101.8 meq/L
  DBIL: 0.08 mg/dL
  GLC: 220.6 mg/dL
  IP: 8.8 mg/dL
  K: 3.8 meq/L
  LDH: 157.2 IU/L
  Na: 141.4 meq/L
  PL: 145 mg/dL
  RALB: 3.4 g/dL
  TBIL: 0.1 mg/dL
  TC: 72.6 mg/dL
  TG: 99.2 mg/dL
  TP: 5.6 g/dL
  gamma-GTP: 1.2 IU/L
[2]
  TERMINAL_BW: 271.5 g
  APTT: 20 s
  Bas: 0%
  Eos: 1%
  Fbg: 221 mg/dL
  Hb: 13.5 g/dL
  Ht: 39.5%
  Lym: 82%
  MCH: 20.7 pg
  MCHC: 34.2%
  MCV: 60.6 fL
  Mono: 3.4%
  Neu: 13.2%
  PT: 12.2 s
  Plat: 132.7 x10_4/uL
  RBC: 652 x10_4/ul
  Ret: 4.7%
  WBC: 114.9 x10_2/uL
  KIDNEY_L: 1.1 g
  KIDNEY_R: 1.1 g
  KIDNEY_TOTAL: 2.2 g
  LIVER: 13.3 g
  ALP: 805 IU/L
  AST: 65 IU/L
  BUN: 15.6 mg/dL
  CRE: 0.4 mg/dL
  Ca: 10.6 mg/dL
  Cl: 101.4 meq/L
  DBIL: 0.066 mg/dL
  GLC: 200.4 mg/dL
  IP: 8.3 mg/dL
  K: 4 meq/L
  LDH: 229.6 IU/L
  Na: 140.8 meq/L
  PL: 150 mg/dL
  RALB: 3.4 g/dL
  TBIL: 0.1 mg/dL
  TC: 77.8 mg/dL
  TG: 85.2 mg/dL
  TP: 5.7 g/dL
  gamma-GTP: 0.8 IU/L
[3]
  TERMINAL_BW: 323 g
  APTT: 20.2 s
  Bas: 0%
  Eos: 0.8%
  Fbg: 208.4 mg/dL
  Hb: 14.2 g/dL
  Ht: 40.8%
  Lym: 82.8%
  MCH: 20.5 pg
  MCHC: 34.7%
  MCV: 59.1 fL
  Mono: 2.2%
  Neu: 13.6%
  PT: 12.1 s
  Plat: 133 x10_4/uL
  RBC: 691 x10_4/ul
  Ret: 4.1%
  WBC: 101.4 x10_2/uL
  KIDNEY_L: 1.3 g
  KIDNEY_R: 1.3 g
  KIDNEY_TOTAL: 2.5 g
  LIVER: 14.7 g
  ALP: 771.6 IU/L
  AST: 66.4 IU/L
  BUN: 15.8 mg/dL
  CRE: 0.5 mg/dL
  Ca: 10.3 mg/dL
  Cl: 101.4 meq/L
  DBIL: 0.074 mg/dL
  GLC: 210.8 mg/dL
  IP: 7.9 mg/dL
  K: 3.7 meq/L
  LDH: 198.2 IU/L
  Na: 140.6 meq/L
  PL: 145.8 mg/dL
  RALB: 3.4 g/dL
  TBIL: 0.1 mg/dL
  TC: 73.4 mg/dL
  TG: 96.8 mg/dL
  TP: 5.8 g/dL
  gamma-GTP: 1 IU/L
[4]
  TERMINAL_BW: 390.5 g
  APTT: 21.2 s
  Bas: 0%
  Eos: 1.2%
  Fbg: 210.4 mg/dL
  Hb: 15.1 g/dL
  Ht: 43.9%
  Lym: 79.6%
  MCH: 18.6 pg
  MCHC: 34.3%
  MCV: 54.3 fL
  Mono: 2.2%
  Neu: 16.6%
  PT: 12.3 s
  Plat: 106.5 x10_4/uL
  RBC: 809.8 x10_4/ul
  Ret: 2.6%
  WBC: 100.5 x10_2/uL
  KIDNEY_L: 1.4 g
  KIDNEY_R: 1.3 g
  KIDNEY_TOTAL: 2.7 g
  LIVER: 16.4 g
  ALP: 538.6 IU/L
  AST: 59.2 IU/L
  BUN: 15.4 mg/dL
  CRE: 0.5 mg/dL
  Ca: 10.5 mg/dL
  Cl: 101.4 meq/L
  DBIL: 0.088 mg/dL
  GLC: 220 mg/dL
  IP: 7.3 mg/dL
  K: 3.6 meq/L
  LDH: 174.8 IU/L
  Na: 141.8 meq/L
  PL: 141 mg/dL
  RALB: 3.6 g/dL
  TBIL: 0.1 mg/dL
  TC: 69.2 mg/dL
  TG: 133 mg/dL
  TP: 6.2 g/dL
